ChEMBL document CHEMBL1144565, “Anti-breast cancer activity of LFM-A13, a potent inhibitor of Polo-like kinase (PLK)” (Bioorg Med Chem, 2007)
Activity calls are given as the source filed them. No cut-off for these calls is given here.

Assays:
[1] = target: T1, Serine/threonine-protein kinase PLK3 (Homo sapiens, UniProt Q9H4B4); assay: Inhibition of human PLK3 in presence of 75 uM ATP
[2] = system: Rattus norvegicus; assay: Toxicity in Lewis rat assessed as myeloid or lymphoid hyperplasia in bone marrow at 20 mg/kg, iV after 7 days; type: organism-based; parameters: dose 20 mg/kg, route intravenous; conditions: in vivo, 168 h
[3] = system: Rattus norvegicus; assay: Toxicity in Lewis rat assessed as absolute lymphocyte counts at 40 mg/kg, iv after 7 days; type: organism-based; parameters: dose 40 mg/kg, route intravenous; conditions: in vivo, 168 h
[4] = system: Mus musculus; assay: Effect on non-proliferating tissue in ip dosed CD1 mouse assessed as toxic lesions in lung; type: ADME, organism-based; conditions: in vivo
[5] = target: Cyclin-dependent kinase 2 (Homo sapiens, UniProt P24941); assay: Inhibition of CDK2
[6] = system: Mus musculus; assay: Subacute toxicity in CD1 mouse assessed as absolute neutrophil counts at 20 mg/kg, ip after 30 days; type: organism-based; parameters: dose 20 mg/kg, route intraperitoneal; conditions: in vivo, 720 h
[7] = target: Tyrosine-protein kinase Fyn (Homo sapiens, UniProt P06241); assay: Inhibition of FYN kinase
[8] = system: Mus musculus; assay: Subacute toxicity in CD1 mouse assessed as WBC counts at 10 mg/kg, ip after 30 days; type: organism-based; parameters: dose 10 mg/kg, route intraperitoneal; conditions: in vivo, 720 h
[9] = system: Mus musculus; assay: Subacute toxicity in CD1 mouse assessed as absolute neutrophil counts at 10 mg/kg, ip after 30 days; type: organism-based; parameters: dose 10 mg/kg, route intraperitoneal; conditions: in vivo, 720 h
[10] = system: Mus musculus; assay: Effect on non-proliferating tissue in ip dosed CD1 mouse assessed as toxic lesions in pancreas; type: ADME, organism-based; conditions: in vivo
[11] = system: Mus musculus; assay: Acute toxicity in CD1 mouse assessed as WBC counts at 20 mg/kg, ip after 7 days; type: organism-based; parameters: dose 20 mg/kg, route intraperitoneal; conditions: in vivo, 168 h
[12] = system: Mus musculus; assay: Anti-breast cancer activity in ip dosed MMTV/Neu transgenic mouse assessed as tumor progression delay; type: functional, organism-based
[13] = target: Insulin-like growth factor 1 receptor (Homo sapiens, UniProt P08069); assay: Inhibition of IGF1R
[14] = system: Mus musculus; assay: Toxicity in cumulative po dosed BALB/c mouse; type: organism-based; conditions: in vivo
[15] = system: Mus musculus; assay: Acute toxicity in CD1 mouse assessed as myeloid or lymphoid hyperplasia in bone marrow at 80 mg/kg, ip after 7 days; type: organism-based; parameters: dose 80 mg/kg, route intraperitoneal; conditions: in vivo, 168 h
[16] = target: Serine/threonine-protein kinase Chk1 (Homo sapiens, UniProt O14757); assay: Inhibition of CHK1
[17] = target: Platelet-derived growth factor receptor (Homo sapiens, UniProt P09619+P16234); assay: Inhibition of PDGFR; type: protein-complex assay
[18] = system: Mus musculus; assay: Subacute toxicity in CD1 mouse assessed as myeloid or lymphoid hyperplasia in bone marrow at 10 mg/kg, ip after 30 days; type: organism-based; parameters: dose 10 mg/kg, route intraperitoneal; conditions: in vivo, 720 h
[19] = system: Mus musculus; assay: Acute toxicity in CD1 mouse assessed as absolute neutrophil counts at 40 mg/kg, ip after 7 days; type: organism-based; parameters: dose 40 mg/kg, route intraperitoneal; conditions: in vivo, 168 h
[20] = system: Mus musculus; assay: Toxicity in po dosed BALB/c mouse; type: organism-based; conditions: in vivo
[21] = system: Mus musculus; assay: Subacute toxicity in CD1 mouse assessed as myeloid or lymphoid hyperplasia in bone marrow at 20 mg/kg, ip after 30 days; type: organism-based; parameters: dose 20 mg/kg, route intraperitoneal; conditions: in vivo, 720 h
[22] = system: Mus musculus; assay: Acute toxicity in CD1 mouse assessed as absolute lymphocyte counts at 20 mg/kg, ip after 7 days; type: organism-based; parameters: dose 20 mg/kg, route intraperitoneal; conditions: in vivo, 168 h
[23] = target: Mitogen-activated protein kinase 14 (Homo sapiens, UniProt Q16539); assay: Inhibition of SAPK2a
[24] = target: Mast/stem cell growth factor receptor Kit (Homo sapiens, UniProt P10721); assay: Inhibition of C-Kit kinase
[25] = system: Rattus norvegicus; assay: Toxicity in Lewis rat assessed as myeloid or lymphoid hyperplasia in bone marrow at 40 mg/kg, iV after 7 days; type: organism-based; parameters: dose 40 mg/kg, route intravenous; conditions: in vivo, 168 h
[26] = system: Mus musculus; assay: Effect on non-proliferating tissue in ip dosed CD1 mouse assessed as toxic lesions in kidney; type: ADME, organism-based; conditions: in vivo
[27] = system: Mus musculus; assay: Subacute toxicity in CD1 mouse assessed as WBC counts at 20 mg/kg, ip after 30 days; type: organism-based; parameters: dose 20 mg/kg, route intraperitoneal; conditions: in vivo, 720 h
[28] = target: T2, Serine/threonine-protein kinase PLK1 (Xenopus laevis, UniProt P70032); assay: Inhibition of Xenopus recombinant Plx1 expressed in Sf21 cells by GST-Cdc25 substrate phosphorylation assay; type: functional
[29] = system: Mus musculus; assay: Acute toxicity in CD1 mouse assessed as myeloid or lymphoid hyperplasia in bone marrow at 10 mg/kg, ip after 7 days; type: organism-based; parameters: dose 10 mg/kg, route intraperitoneal; conditions: in vivo, 168 h
[30] = system: BT-20; assay: Induction of aberrant monopolar and multipolar spindle formation in human BT20 cells assessed as at 100 uM; type: functional, cell-based
[31] = system: Rattus norvegicus; assay: Toxicity in Lewis rat assessed as WBC counts at 20 mg/kg, iv after 7 days; type: organism-based; parameters: dose 20 mg/kg, route intravenous; conditions: in vivo, 168 h
[32] = target: Tyrosine-protein kinase ABL1 (Homo sapiens, UniProt P00519); assay: Inhibition of ABL kinase
[33] = system: Mus musculus; assay: Acute toxicity in CD1 mouse assessed as WBC counts at 40 mg/kg, ip after 7 days; type: organism-based; parameters: dose 40 mg/kg, route intraperitoneal; conditions: in vivo, 168 h
[34] = system: Rattus norvegicus; assay: Toxicity in Lewis rat assessed as WBC counts at 80 mg/kg, iv after 7 days; type: organism-based; parameters: dose 80 mg/kg, route intravenous; conditions: in vivo, 168 h
[35] = system: Rattus norvegicus; assay: Toxicity in Lewis rat assessed as absolute lymphocyte counts at 80 mg/kg, iv after 7 days; type: organism-based; parameters: dose 80 mg/kg, route intravenous; conditions: in vivo, 168 h
[36] = target: T1, Serine/threonine-protein kinase PLK3; assay: Inhibition of human PLK3 in presence of 50 uM ATP
[37] = species on record: Danio rerio; assay: Effect on cell division blockade in zebrafish egg assessed as cell fusion and lysis at 500 uM after 60 mins; type: functional, organism-based
[38] = target: T1, Serine/threonine-protein kinase PLK3; assay: Inhibition of human PLK3 in presence of 200 uM ATP
[39] = system: Rattus norvegicus; assay: Effect on non-proliferating tissue in iv dosed Lewis rat assessed as toxic lesions in brain on day 7; type: ADME, organism-based; conditions: in vivo
[40] = system: Mus musculus; assay: Acute toxicity in CD1 mouse assessed as WBC counts at 80 mg/kg, ip after 7 days; type: organism-based; parameters: dose 80 mg/kg, route intraperitoneal; conditions: in vivo, 168 h
[41] = target: T1, Serine/threonine-protein kinase PLK3; assay: Inhibition of human PLK3 in presence of 100 uM ATP
[42] = target: Cytoplasmic tyrosine-protein kinase BMX (Homo sapiens, UniProt P51813); assay: Inhibition of BMX kinase
[43] = target: T2, Serine/threonine-protein kinase PLK1; assay: Inhibition of xenopus recombinant Plx1 expressed in Sf21 cells by measuring autophosphorylation by 15-mins kinase assay; type: functional
[44] = system: Mus musculus; assay: Subacute toxicity in CD1 mouse assessed as absolute lymphocyte counts at 40 mg/kg, ip after 30 days; type: organism-based; parameters: dose 40 mg/kg, route intraperitoneal; conditions: in vivo, 720 h
[45] = system: Mus musculus; assay: Effect on non-proliferating tissue in po dosed BALB/c mouse assessed as toxic lesions in brain; type: ADME, organism-based; conditions: in vivo
[46] = system: Rattus norvegicus; assay: Toxicity in Lewis rat assessed as absolute lymphocyte counts at 20 mg/kg, iv after 7 days; type: organism-based; parameters: dose 20 mg/kg, route intravenous; conditions: in vivo, 168 h
[47] = target: Tyrosine-protein kinase Yes (Homo sapiens, UniProt P07947); assay: Inhibition of YES kinase

T1 sequence (Q9H4B4 whole entry): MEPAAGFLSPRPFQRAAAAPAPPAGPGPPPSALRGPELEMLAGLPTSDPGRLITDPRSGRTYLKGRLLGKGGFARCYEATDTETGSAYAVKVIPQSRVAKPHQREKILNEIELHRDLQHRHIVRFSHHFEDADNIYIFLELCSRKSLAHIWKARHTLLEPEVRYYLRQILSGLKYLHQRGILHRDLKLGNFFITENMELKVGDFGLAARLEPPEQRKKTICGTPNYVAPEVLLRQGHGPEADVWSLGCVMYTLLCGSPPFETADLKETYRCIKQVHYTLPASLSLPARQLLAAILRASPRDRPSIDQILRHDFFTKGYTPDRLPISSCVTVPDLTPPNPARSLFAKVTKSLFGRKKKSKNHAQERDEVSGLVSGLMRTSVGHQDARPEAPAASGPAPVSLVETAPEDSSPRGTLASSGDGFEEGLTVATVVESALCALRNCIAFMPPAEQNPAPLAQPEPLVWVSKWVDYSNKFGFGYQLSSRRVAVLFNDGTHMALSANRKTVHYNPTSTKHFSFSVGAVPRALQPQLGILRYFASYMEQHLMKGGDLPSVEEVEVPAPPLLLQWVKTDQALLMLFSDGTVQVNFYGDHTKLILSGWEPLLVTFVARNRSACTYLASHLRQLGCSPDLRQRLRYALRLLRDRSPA
T2 sequence (P70032 whole entry): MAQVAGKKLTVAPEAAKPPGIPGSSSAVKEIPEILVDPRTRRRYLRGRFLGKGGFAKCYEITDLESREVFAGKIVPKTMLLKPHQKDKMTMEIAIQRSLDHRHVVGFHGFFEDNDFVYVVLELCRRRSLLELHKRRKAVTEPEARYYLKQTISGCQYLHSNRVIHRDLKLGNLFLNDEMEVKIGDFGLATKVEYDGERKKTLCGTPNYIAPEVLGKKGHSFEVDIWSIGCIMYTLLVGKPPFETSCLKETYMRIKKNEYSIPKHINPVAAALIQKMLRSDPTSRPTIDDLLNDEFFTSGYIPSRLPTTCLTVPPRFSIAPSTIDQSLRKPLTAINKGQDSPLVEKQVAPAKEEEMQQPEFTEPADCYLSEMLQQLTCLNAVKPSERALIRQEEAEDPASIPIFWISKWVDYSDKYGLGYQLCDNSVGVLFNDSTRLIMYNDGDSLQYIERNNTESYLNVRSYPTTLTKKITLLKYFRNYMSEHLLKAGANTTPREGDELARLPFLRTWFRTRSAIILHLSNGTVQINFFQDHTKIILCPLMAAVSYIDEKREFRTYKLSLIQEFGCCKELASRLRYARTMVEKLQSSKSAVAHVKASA
Tyrosine-protein kinase ABL1, sequence (P00519 whole entry): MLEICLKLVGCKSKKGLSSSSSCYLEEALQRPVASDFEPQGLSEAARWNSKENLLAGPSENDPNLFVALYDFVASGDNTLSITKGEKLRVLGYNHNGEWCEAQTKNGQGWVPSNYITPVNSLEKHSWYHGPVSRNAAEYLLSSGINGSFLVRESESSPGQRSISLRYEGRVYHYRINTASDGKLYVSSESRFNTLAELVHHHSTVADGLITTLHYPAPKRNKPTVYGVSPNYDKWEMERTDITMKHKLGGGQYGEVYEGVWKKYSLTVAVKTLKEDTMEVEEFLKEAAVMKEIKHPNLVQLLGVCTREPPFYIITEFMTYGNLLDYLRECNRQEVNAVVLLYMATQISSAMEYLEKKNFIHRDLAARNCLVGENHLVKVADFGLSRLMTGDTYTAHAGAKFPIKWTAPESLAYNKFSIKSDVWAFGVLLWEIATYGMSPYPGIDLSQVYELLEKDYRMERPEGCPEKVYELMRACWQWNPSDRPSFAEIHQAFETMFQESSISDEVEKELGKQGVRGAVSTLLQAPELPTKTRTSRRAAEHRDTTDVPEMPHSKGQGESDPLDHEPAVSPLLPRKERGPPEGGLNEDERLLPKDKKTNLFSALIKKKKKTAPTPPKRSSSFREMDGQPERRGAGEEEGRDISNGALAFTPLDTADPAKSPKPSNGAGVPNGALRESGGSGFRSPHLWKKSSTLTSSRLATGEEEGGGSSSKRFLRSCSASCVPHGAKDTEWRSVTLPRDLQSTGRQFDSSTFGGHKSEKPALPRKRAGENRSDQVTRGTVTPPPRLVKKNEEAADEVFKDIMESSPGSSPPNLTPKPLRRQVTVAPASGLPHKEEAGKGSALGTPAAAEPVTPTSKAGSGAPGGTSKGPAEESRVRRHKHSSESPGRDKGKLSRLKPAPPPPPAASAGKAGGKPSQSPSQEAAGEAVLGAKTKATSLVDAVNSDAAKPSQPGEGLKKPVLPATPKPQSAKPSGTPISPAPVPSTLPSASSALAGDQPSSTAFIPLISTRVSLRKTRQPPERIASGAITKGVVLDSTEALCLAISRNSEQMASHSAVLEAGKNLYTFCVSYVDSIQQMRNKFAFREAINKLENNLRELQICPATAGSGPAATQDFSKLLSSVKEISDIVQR
Mitogen-activated protein kinase 14, sequence (Q16539 whole entry): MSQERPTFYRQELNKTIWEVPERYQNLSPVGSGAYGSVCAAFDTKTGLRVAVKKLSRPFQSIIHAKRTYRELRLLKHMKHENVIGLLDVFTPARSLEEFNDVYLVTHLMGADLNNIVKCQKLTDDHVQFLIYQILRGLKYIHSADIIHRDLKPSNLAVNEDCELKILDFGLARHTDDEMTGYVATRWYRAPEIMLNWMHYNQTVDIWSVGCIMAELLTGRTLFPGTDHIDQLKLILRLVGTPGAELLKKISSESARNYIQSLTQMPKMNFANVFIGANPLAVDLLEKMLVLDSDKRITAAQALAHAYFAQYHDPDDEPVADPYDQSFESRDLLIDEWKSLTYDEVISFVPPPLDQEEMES
Insulin-like growth factor 1 receptor, sequence (P08069 31-736 limits assumed): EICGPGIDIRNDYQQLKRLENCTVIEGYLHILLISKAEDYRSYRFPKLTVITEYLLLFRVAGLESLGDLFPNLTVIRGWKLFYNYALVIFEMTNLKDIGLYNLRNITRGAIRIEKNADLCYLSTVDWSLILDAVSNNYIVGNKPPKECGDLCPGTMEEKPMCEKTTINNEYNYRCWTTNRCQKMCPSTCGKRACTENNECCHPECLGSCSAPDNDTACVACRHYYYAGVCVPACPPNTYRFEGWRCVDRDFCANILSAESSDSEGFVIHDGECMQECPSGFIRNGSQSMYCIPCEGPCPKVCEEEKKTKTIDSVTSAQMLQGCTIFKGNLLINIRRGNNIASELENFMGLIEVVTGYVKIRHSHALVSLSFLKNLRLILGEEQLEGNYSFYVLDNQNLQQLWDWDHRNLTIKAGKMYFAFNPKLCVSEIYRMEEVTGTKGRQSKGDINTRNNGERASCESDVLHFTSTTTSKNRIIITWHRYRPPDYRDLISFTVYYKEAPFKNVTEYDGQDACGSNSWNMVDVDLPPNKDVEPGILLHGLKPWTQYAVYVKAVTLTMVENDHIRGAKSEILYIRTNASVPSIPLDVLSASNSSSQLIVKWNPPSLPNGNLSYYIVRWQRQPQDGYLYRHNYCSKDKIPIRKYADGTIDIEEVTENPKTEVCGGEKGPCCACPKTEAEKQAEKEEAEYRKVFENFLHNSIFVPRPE
Insulin-like growth factor 1 receptor, sequence (P08069 741-1367 limits assumed): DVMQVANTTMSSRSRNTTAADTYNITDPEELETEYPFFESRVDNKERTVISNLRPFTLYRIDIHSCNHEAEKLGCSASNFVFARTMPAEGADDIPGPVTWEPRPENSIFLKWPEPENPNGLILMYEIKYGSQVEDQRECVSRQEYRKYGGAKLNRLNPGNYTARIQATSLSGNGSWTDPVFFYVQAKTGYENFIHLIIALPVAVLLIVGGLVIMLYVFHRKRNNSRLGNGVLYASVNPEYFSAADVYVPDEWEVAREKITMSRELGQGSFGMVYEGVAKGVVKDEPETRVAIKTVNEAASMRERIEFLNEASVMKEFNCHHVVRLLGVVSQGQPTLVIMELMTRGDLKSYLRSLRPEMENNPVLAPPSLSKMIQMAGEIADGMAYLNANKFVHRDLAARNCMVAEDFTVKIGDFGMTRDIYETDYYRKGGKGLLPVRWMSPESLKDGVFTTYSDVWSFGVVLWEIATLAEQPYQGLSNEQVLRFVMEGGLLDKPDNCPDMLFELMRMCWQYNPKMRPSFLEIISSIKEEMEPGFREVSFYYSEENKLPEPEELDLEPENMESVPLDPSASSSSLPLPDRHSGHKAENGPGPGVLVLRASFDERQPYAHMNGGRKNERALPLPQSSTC
Serine/threonine-protein kinase Chk1, sequence (O14757 whole entry): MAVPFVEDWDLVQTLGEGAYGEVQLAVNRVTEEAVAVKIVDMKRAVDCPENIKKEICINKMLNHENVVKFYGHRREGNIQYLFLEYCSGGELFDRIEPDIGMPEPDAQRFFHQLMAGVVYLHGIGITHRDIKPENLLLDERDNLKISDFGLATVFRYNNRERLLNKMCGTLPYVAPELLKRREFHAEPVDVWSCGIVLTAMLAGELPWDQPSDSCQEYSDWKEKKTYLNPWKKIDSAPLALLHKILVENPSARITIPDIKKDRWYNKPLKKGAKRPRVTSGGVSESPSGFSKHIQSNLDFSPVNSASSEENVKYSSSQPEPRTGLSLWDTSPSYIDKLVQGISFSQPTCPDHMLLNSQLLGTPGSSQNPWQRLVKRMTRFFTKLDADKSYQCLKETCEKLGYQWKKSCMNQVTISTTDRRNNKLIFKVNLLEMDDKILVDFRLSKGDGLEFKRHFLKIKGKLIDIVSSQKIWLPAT

For C/C(O)=C(\C#N)C(=O)Nc1cc(Br)ccc1Br, which IC50 [1] is on record?
The IC50 was 120 µM.

And the Activity [2]?
Its Activity is “Non-toxic”.

And the Activity [3]?
Its Activity is 10.6 10^9/L.

What about the Activity [4] of the same compound?
Its Activity is “Non-toxic”.

And the IC50 [5]?
The IC50 was > 500 µM.

What about the Activity [6] of the same compound?
The Activity was 2.2 10^9/L.

What about the IC50 [7] of the same compound?
The IC50 was 240 µM.

And the Activity [8]?
Its Activity is 6 10^9/L.

What about the Activity [9] of the same compound?
The Activity was 1.4 10^9/L.

And the Activity [10]?
Its Activity is “Non-toxic”.

What about the Activity [11] of the same compound?
Its Activity is 7.6 10^9/L.

What about the Activity [12] of the same compound?
The Activity was “Dose-dependent effect”.

And the IC50 [13]?
The IC50 was > 500 µM.

What about the LD10 [14] of the same compound?
Its LD10 is > 11200 mg/kg.

And the Activity [15]?
Its Activity is “Non-toxic”.

What about the IC50 [16] of the same compound?
The IC50 was > 500 µM.

And the IC50 [17]?
Its IC50 is > 500 µM.

And the Activity [18]?
The Activity was “Non-toxic”.

And the Activity [19]?
The Activity was 1.6 10^9/L.

And the LD10 [20]?
The LD10 was > 100 mg/kg.

What about the Activity [21] of the same compound?
The Activity was “Non-toxic”.

What about the Activity [22] of the same compound?
Its Activity is 5.8 10^9/L.

And the IC50 [23]?
Its IC50 is > 500 µM.

And the IC50 [24]?
Its IC50 is > 500 µM.

What about the Activity [25] of the same compound?
Its Activity is “Non-toxic”.

And the Activity [26]?
The Activity was “Non-toxic”.

What about the Activity [27] of the same compound?
Its Activity is 6.2 10^9/L.

What about the IC50 [28] of the same compound?
Its IC50 is 32.5 µM.

What about the Activity [29] of the same compound?
The Activity was “Non-toxic”.

What about the Activity [30] of the same compound?
The Activity was “Active”.

And the Activity [31]?
The Activity was 11.7 10^9/L.

And the IC50 [32]?
Its IC50 is > 500 µM.

What about the Activity [33] of the same compound?
The Activity was 7 10^9/L.

And the Activity [34]?
Its Activity is 11.7 10^9/L.

What about the Activity [35] of the same compound?
The Activity was 9.7 10^9/L.

And the IC50 [36]?
Its IC50 is 79 µM.

And the Activity [37]?
Its Activity is “Active”.

What about the IC50 [38] of the same compound?
Its IC50 is 262 µM.

And the Activity [39]?
The Activity was “Non-toxic”.

What about the Activity [40] of the same compound?
Its Activity is 6.6 10^9/L.

And the IC50 [41]?
Its IC50 is 125 µM.

What about the IC50 [42] of the same compound?
Its IC50 is 281 µM.

What about the IC50 [43] of the same compound?
Its IC50 is 10.3 µM.

What about the Activity [44] of the same compound?
The Activity was 5.1 10^9/L.

What about the Activity [45] of the same compound?
Its Activity is “Non-toxic”.

And the Activity [46]?
Its Activity is 9.8 10^9/L.

What about the IC50 [47] of the same compound?
Its IC50 is > 500 µM.
